# Measured values from paper PMC13047053, “Crystal structure of human INPP5K with an allosteric inhibitor reveals the structural basis for species specific potency” (Scientific Reports, 2026).
# Experiments:
# [1] = biological target: T1, human INPP5K-cd (catalytic domain, 1-328) (Homo sapiens, UniProt Q9BT40); assay: Fluorescence polarization assay to evaluate phosphatase inhibition; type: biochemical; settings: 20 µM diC8-PI(3,4,5)P3, 30 min
# T1 construct: human INPP5K catalytic domain (amino acids 1–328, INPP5K-cd, UniProt ID: Q9BT40); His6-MBP (MBP amino acids 1–387) (N, cleaved yes); TEV protease site ENLYFQG (N, cleaved yes); made in house; host or cells: E. coli Rosetta2 (DE3)
# T1 sequence (Q9BT40 1-328): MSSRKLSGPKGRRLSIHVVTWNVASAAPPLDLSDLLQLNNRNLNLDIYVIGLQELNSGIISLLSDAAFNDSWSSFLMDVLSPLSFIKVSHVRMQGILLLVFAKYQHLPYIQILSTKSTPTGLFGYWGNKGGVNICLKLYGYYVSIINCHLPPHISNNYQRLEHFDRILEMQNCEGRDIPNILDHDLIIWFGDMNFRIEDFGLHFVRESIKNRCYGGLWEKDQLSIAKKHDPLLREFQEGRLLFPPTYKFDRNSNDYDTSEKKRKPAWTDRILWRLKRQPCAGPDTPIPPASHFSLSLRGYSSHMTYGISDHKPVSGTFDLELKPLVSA
# Source text: (§1) The oligonucleotides used for vector construction were synthesized and purchased from GenScript Inc. (Tokyo, Japan). The cDNA encoding human INPP5K catalytic domain (amino acids 1–328, INPP5K-cd, UniProt ID: Q9BT40), which excluded the SKICH region from the full-length INPP5K sequence, was cloned downstream of MBP (amino acids 1–387) with an N-terminal His6-tag in the pET28 expression vector, a Novagen product (Merck KGaA, Darmstadt, Germany). Between the MBP and INPP5K-cd sequences, the Tobacco Etch Virus protease cleavage site (ENLYFQG) was inserted, such that the MBP–INPP5K-cd fusion protein could be digested by TEV protease during purification. Furthermore, using the Gibson Assembly method, the sequence encoding the amino acids 280–299 ([…]) of INPP5K cd was replaced by the sequence encoding AKANPSGFLLTQKD, which corresponds to the amino acids 283–296 of the rat INPP5K-cd (UniProt ID: Q9R0B6), resulting in the deletion of six amino acid residues (delta-INPP5K-cd). The truncated construct was designed using a comparison between a structure model and the structures of several IP5Pases[9]–[11]. […] The concentration of protein obtained was measured using the Bradford method, with bovine serum albumin as the standard. Fractions corresponding to each purification step were analyzed by SDS-PAGE, followed by staining of the gel with Coomassie brilliant blue R-250. […]
# [2] = biological target: T2, human delta-INPP5K-cd (loop-substituted catalytic domain) (Homo sapiens, UniProt Q9BT40, C280K/DEL284-290/G282N/G299D/H292G/INS279A/L297Q/R298K/S294L/S296T); assay: as above; type: biochemical; settings: 20 µM diC8-PI(3,4,5)P3, 30 min
# T2 construct: human INPP5K catalytic domain (amino acids 1–328, INPP5K-cd, UniProt ID: Q9BT40); His6-MBP (MBP amino acids 1–387) (N, cleaved yes); TEV protease site ENLYFQG (N, cleaved yes); made in house; host or cells: E. coli Rosetta2 (DE3)
# Source text: as §1
# T2 sequence (Q9BT40 other isoform, or with tags, fused parts or gaps with the stated changes): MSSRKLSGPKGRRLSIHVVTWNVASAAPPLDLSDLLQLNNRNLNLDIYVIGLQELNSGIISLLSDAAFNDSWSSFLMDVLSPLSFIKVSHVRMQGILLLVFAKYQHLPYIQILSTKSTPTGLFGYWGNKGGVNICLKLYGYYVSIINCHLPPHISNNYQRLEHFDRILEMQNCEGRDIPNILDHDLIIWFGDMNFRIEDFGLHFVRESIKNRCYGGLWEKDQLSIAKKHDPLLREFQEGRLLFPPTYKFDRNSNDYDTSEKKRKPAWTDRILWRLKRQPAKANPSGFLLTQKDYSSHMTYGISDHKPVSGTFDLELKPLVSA
compound,measurement,setting,value
CC(C)c1sc(NC(=O)c2ccccc2)c(C(=O)O)c1-c1ccccc1 [CPD-1],IC50,[1],2.3 µM
same,IC50,[2],2.9 µM
